Test results taken from US8952024B2, “Herbicidal pyrimidone derivatives” (E I du Pont de Nemours and Company, priority 2009, dated 2015).

Columns and labels:
Assay type in all cases: in vivo
[1] = test system: barnyardgrass (Echinochloa crus-galli); experiment: Test B flooded paddy test; details: for Plant response rating, Barnyardgrass: Flood (flooded paddy test), 13 to 15 days; for Barnyardgrass plant response rating: Flood, 31 g ai/ha, scale 0 to 100 (0 no effect, 100 complete control)
Outline: (§1)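 2-leaf seedlings; pots flooded 3 cm over soil at treatment; cpd dosed into floodwater, depth kept constant. Greenhouse 13–15 d. Visual rating vs untreated controls, 0 = no effect, 100 = complete control.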

[2] = test system: umbrella sedge (Cyperus difformis); experiment: Test B flooded paddy test; details: for Plant response rating, Sedge, Umbrella: Flood (flooded paddy test), 13 to 15 days; for Sedge, Umbrella plant response rating: Flood, 31 g ai/ha, scale 0 to 100 (0 no effect, 100 complete control)
Outline: as §1

rice (Oryza sativa) = experiment: Test B flooded paddy test; details: for Plant response rating, Rice: Flood (flooded paddy test), 13 to 15 days; for Rice plant response rating: Flood, 31 g ai/ha, scale 0 to 100 (0 no effect, 100 complete control)
Outline: as §1

[3] = test system: ducksalad (Heteranthera limosa); experiment: Test B flooded paddy test; details: for Plant response rating, Ducksalad: Flood (flooded paddy test), 13 to 15 days; for Ducksalad plant response rating: Flood, 31 g ai/ha, scale 0 to 100 (0 no effect, 100 complete control)
Outline: as §1

[4] = test system: pigweed (Amaranthus retroflexus); experiment: Test A pre-/postemergence plant response
Outline: (§2)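 Plants grown from seed in a loam soil and sand mix received test compounds both as a preemergence soil spray and, at the same time, as a postemergence spray at the one- to two-leaf stage. Injury was judged visually against untreated controls roughly ten days later, 0 meaning no effect and 100 complete control.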

[5] = test system: barnyardgrass (Echinochloa crus-galli); experiment: Test A pre-/postemergence plant response
Outline: as §2

corn (Zea mays) = experiment: Test A pre-/postemergence plant response
Outline: as §2

[6] = test system: velvetleaf (Abutilon theophrasti); experiment: Test A pre-/postemergence plant response
Outline: as §2

[7] = test system: giant foxtail (Setaria faberii); experiment: Test A pre-/postemergence plant response
Outline: as §2

[8] = test system: morningglory (Ipomoea spp.); experiment: Test A pre-/postemergence plant response
Outline: as §2

[9] = test system: wheat (Triticum aestivum); experiment: Test A pre-/postemergence plant response
Outline: as §2

[10] = test system: large crabgrass (Digitaria sanguinalis); experiment: Test A pre-/postemergence plant response
Outline: as §2

[11] = 250 g ai/ha, flooded paddy test, visual rating on 0 to 100 scale (0 no effect, 100 complete control) after 13 to 15 days
[12] = 62 g ai/ha, scale of 0 to 100 where 0 is no effect and 100 is complete control
[13] = 125 g ai/ha, scale 0 to 100, 0 is no effect, 100 is complete control
[14] = Postemergence, 125 g ai/ha, 0 to 100 scale where 0 is no effect and 100 is complete control
[15] = Postemergence, 500 g ai/ha, 0 to 100 scale, 0 = no effect, 100 = complete control, approx. ten days
[16] = Preemergence, 125 g ai/ha, 0 to 100 scale, 0 = no effect, 100 = complete control
[17] = Preemergence, 500 g ai/ha, visual injury, 0 to 100 scale (0 no effect, 100 complete control), approx. ten days
[18] = Preemergence, 500 g ai/ha, 0 to 100 scale, 0 = no effect, 100 = complete control
[19] = Postemergence, 500 g ai/ha, visual injury, 0 to 100 scale (0 no effect, 100 complete control), approx. ten days

SMILES: Cc1ccc(F)cc1-n1c(-c2cccc(Br)c2)ncc(C(=O)C2=C(O)CCCC2=O)c1=O [Compound 154]
- Plant response rating, Flood, Barnyardgrass [1, 11]: 40
- Plant response rating, Barnyardgrass [1, 12]: 0
- Plant response rating, Barnyardgrass [1, 13]: 0
- Barnyardgrass plant response rating [1]: 0
- Plant response rating, Flood, Sedge, Umbrella [2, 11]: 100
- Plant response rating, Sedge, Umbrella [2, 12]: 95
- Plant response rating, Sedge, Umbrella [2, 13]: 95
- Sedge, Umbrella plant response rating [2]: 0
- Plant response rating, Flood, Rice (rice (Oryza sativa); [11]): 75
- Plant response rating, Rice (rice (Oryza sativa); [12]): 0
- Plant response rating, Rice (rice (Oryza sativa); [13]): 60
- Rice plant response rating (rice (Oryza sativa)): 0
- Plant response rating, Flood, Ducksalad [3, 11]: 100
- Plant response rating, Ducksalad [3, 12]: 50
- Plant response rating, Ducksalad [3, 13]: 70
- Ducksalad plant response rating [3]: 0
- Plant response rating, Pigweed [4, 14]: 60
- Plant response rating, Pigweed [4, 15]: 100
- Plant response rating, Pigweed [4, 16]: 30
- Plant response rating, Pigweed [4, 17]: 80
- Plant response rating, Barnyardgrass [5, 14]: 90
- Plant response rating, Barnyardgrass [5, 15]: 90
- Plant response rating, Barnyardgrass [5, 16]: 0
- Plant response rating, Barnyardgrass [5, 17]: 40
- Plant response rating, Corn (corn (Zea mays); [14]): 0
- Plant response rating, Corn (corn (Zea mays); [15]): 10
- Plant response rating, Corn (corn (Zea mays); [16]): 0
- Plant response rating, Corn (corn (Zea mays); [17]): 0
- Plant response rating, Velvetleaf [6, 14]: 100
- Plant response rating, Velvetleaf [6, 15]: 100
- Plant response rating, Velvetleaf [6, 16]: 40
- Plant response rating, Velvetleaf [6, 18]: 80
- Plant response rating, Foxtail, Giant [7, 14]: 60
- Plant response rating, Foxtail, Giant [7, 15]: 90
- Plant response rating, Foxtail, Giant [7, 16]: 10
- Plant response rating, Foxtail, Giant [7, 17]: 30
- Plant response rating, Morningglory [8, 14]: 30
- Plant response rating, Morningglory [8, 15]: 70
- Plant response rating, Morningglory [8, 16]: 0
- Plant response rating, Morningglory [8, 17]: 0
- Plant response rating, Wheat [9, 14]: 0
- Plant response rating, Wheat [9, 15]: 0
- Plant response rating, Wheat [9, 16]: 0
- Plant response rating, Wheat [9, 18]: 0
- Plant response rating, Crabgrass, Large [10, 14]: 70
- Plant response rating, Crabgrass, Large [10, 15]: 100
- Plant response rating, Crabgrass, Large [10, 16]: 10
- Plant response rating, Crabgrass, Large [10, 17]: 50

SMILES: O=C1CCCC(O)=C1C(=O)c1cnc(-c2cc(F)cc(F)c2)n(CC2CCCCC2)c1=O [Compound 163]
- Plant response rating, Barnyardgrass [1, 13]: 0
- Barnyardgrass plant response rating [1]: 0
- Plant response rating, Sedge, Umbrella [2, 13]: 70
- Sedge, Umbrella plant response rating [2]: 70
- Plant response rating, Rice (rice (Oryza sativa); [13]): 20
- Rice plant response rating (rice (Oryza sativa)): 10
- Plant response rating, Ducksalad [3, 13]: 60
- Ducksalad plant response rating [3]: 30
- Plant response rating, Pigweed [4, 14]: 80
- Pigweed plant response rating [4, 19]: 100
- Plant response rating, Pigweed [4, 16]: 0
- Plant response rating, Pigweed [4, 18]: 60
- Plant response rating, Barnyardgrass [5, 14]: 50
- Barnyardgrass plant response rating [5, 19]: 100
- Plant response rating, Barnyardgrass [5, 16]: 0
- Plant response rating, Barnyardgrass [5, 18]: 20
- Plant response rating, Corn (corn (Zea mays); [14]): 0
- Corn plant response rating (corn (Zea mays); [19]): 20
- Plant response rating, Corn (corn (Zea mays); [16]): 0
- Plant response rating, Corn (corn (Zea mays); [18]): 0
- Plant response rating, Velvetleaf [6, 14]: 100
- Velvetleaf plant response rating [6, 19]: 100
- Plant response rating, Velvetleaf [6, 16]: 10
- Plant response rating, Velvetleaf [6, 18]: 50
- Plant response rating, Foxtail, Giant [7, 14]: 20
- Foxtail, Giant plant response rating [7, 19]: 50
- Plant response rating, Foxtail, Giant [7, 16]: 0
- Plant response rating, Foxtail, Giant [7, 18]: 10
- Plant response rating, Morningglory [8, 14]: 10
- Morningglory plant response rating [8, 19]: 100
- Plant response rating, Morningglory [8, 16]: 0
- Plant response rating, Morningglory [8, 18]: 0
- Plant response rating, Wheat [9, 14]: 0
- Wheat plant response rating [9, 19]: 0
- Plant response rating, Wheat [9, 16]: 0
- Plant response rating, Wheat [9, 18]: 0
- Plant response rating, Crabgrass, Large [10, 14]: 60
- Crabgrass, Large plant response rating [10, 19]: 90
- Plant response rating, Crabgrass, Large [10, 16]: 0
- Plant response rating, Crabgrass, Large [10, 18]: 10
